Test system: subject on metformin (type 2 diabetes)
Experiment: Blood glucose response after a standard meal under three treatment regimens (Example 1)
Type: in vivo, human
Details: control regimen: metformin 500 mg with the standard meal, no pre-meal drink; after overnight fasting
Description: This example compares the blood glucose response in a subject on a dosage of metformin of 500 mg (immediate release dosage) taken twice per day using three different treatment regimens after overnight fasting on separate dates.
The three treatment regimens were as follows: • 1. Regimen in accordance with the invention in which a dose of 500 mg mg of metformin as a (immediate release) tablet 30 minutes before a standard meal followed by a standard drink 15 minutes before the standard meal. Blood glucose levels with time are shown in plot 1 of FIG. 1. • 2. Control Regimen in which the metformin medication was administered with the standard meal without the pre-meal drink. Blood glucose levels with time are shown in plot 2 of FIG. 1. • 3. Comparison regimen in which the standard drink was administered 15 minutes before a meal and the metformin medication was administered with the standard meal. Blood glucose levels with time are shown in plot 3 of FIG. 1.
The standard pre-meal drink used in Example 1 was formed of the following composition: • 20 g WPC-80 • 5 g guar gum • 150 ml water
The drink was prepared by mixing the powder with water according to the following procedure: • 20 g of WPC80 (whey protein concentrate) and 5 g of guar gum were mixed together as a powder. […] The lid was removed ready for the participant to consume immediately. […]

CN(C)C(=N)N=C(N)N [metformin, Metformin]
post-prandial blood glucose with time (FIG. 1, Plot 2): significant rise in post-prandial glucose for a period of over 60 minutes
